Source: patent US4923865A, “Substituted 1-(1H-imidazol-4-yl)alkyl-benzamides as anti-ischemics and as alpha-2-adrenergic receptor agonists” (U C B Societe Anonyme, priority 1988, dated 1990)
Like-named read-outs stand apart in the source and are kept apart here.

Assays:
[1] = target: T1, presynaptic α2 -adrenergic receptors (Cavia porcellus, UniProt Q60474); assay: Stimulation of the isolated guinea-pig atria (reduction in tachycardia)
T1 construct: Stimulation of a guinea-pig ileum; from tissue; host or cells: guinea-pig ileum longitudinal muscle strips
T1 sequence (Q60474 1-464): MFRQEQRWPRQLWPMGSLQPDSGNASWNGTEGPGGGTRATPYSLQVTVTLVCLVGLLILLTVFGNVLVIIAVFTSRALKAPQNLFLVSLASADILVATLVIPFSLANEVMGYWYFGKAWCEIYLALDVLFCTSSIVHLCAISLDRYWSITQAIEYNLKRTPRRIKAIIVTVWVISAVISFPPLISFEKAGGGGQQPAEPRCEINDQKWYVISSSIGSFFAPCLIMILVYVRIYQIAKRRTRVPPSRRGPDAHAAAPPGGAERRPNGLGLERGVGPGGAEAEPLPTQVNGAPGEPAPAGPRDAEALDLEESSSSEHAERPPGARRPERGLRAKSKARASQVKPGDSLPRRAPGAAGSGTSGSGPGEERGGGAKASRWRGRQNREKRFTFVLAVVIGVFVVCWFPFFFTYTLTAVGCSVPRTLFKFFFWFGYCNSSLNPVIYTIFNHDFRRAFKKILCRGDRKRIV
From the text: (b) Stimulation of the isolated guinea-pig atria. The release of noradrenalin at the level of the nerve endings is mediated by a feedback regulating mechanism through the presynaptic α2 -adrenergic receptors. […] Ed. D. S. DAVIES, J. L. REID, Pitman, London.
The electrical stimulation of the isolated guinea-pig atria induces a release of noradrenalin which results in an increase in the rate of the heart beat (tachycardia). This tachycardia is inhibited by an α2 -agonist such as, for example, clonidine, in a proportion which depends on the dose of the agonist used. The action of the α2 -agonist may be limited in the presence of an α2 -specific antagonist such as α-yohimbine.
The in vitro activity of the compounds of the invention on the presynaptic α2 -adrenergic receptors has been studied on the isolated guinea-pig atria, electrically stimulated according to the method described by I. C. MEDGETT et al., Naunyn-Schmiedeberg's Arch. Pharmacol. 304, (1978), 215-221. The compound to be studied is tested in increasing concentrations ranging from 10^-10 to 10^-3 mole/l. The concentration (IC30 in mole/l) which causes a 30% reduction in the maximum tachycardia obtained initially during the electrical stimulation of the atria in the absence of the compound to be tested, is determined.
On the other hand, in the presence of a concentration of 10^-6 mole/l of α-yohimbine, the concentration of compound A necessary to obtain a reduction of 30% in the tachycardia is greater than 10^-7 mole/l.

[2] = target: T1, presynaptic α2 -adrenergic receptors; assay: Inhibition of the contraction of electrically stimulated guinea-pig ileum
From the text: (c) Stimulation of a guinea-pig ileum. Longitudinal muscles strips attached to an isometric strain gauge are suspended in Tyrode's solution and are stretched under a tension of 1 g (G. M. DREW. Brit. J. Pharmacol. 64, (1978), 293-300; M. ANDREJAK et al., Naunyn-Schmiedelberg's Arch. Pharmacol. 314, (1980), 83-87).
Electrical stimulation of the parasympathetic nerves associated with the ileum fragments causes a contraction of the muscle. This contraction is reduced in the presence of a presynaptic α2 -agonist and the magnitude by which the contraction is reduced depends on the concentration of the agonist used. This effect is antagonized by the simultaneous presence of an α2 -antagonist such as α-yohimbine. The compounds to be studied have been tested at increasing concentrations ranging from 10^-10 to 10^-3 mole/l.
The concentration (IC50 in mole/l) that reduces by 50% the intensity of the contraction of the muscle is determined.
In the presence of α-yohimbine at a concentration of 10^-6 mole/l, the concentration of the compounds A or B, for example, that is required for reducing muscle contraction intensity by 50% is higher, and becomes greater than 10^-6 mole/l, which gives additional confirmation that the compounds of the invention act really at the level of the presynaptic α2 -adrenergic receptors.

[3] = Diuretic activity in beagle dogs (urine excretion); type: in vivo; details: for Mean relative increase in urine excretion: first three hours; for minimal effective dose: Canis lupus familiaris, iv, 3 h, i.v., read-out: minimum active dose that causes a statistically significant increase of the urine excretion
Experimental: 4. Diuretic activity. The diuretic activity of the compounds of the invention has been determined using beagle dogs (6 males and 6 females) be means of a 6-way randomized cross-over study.
The compounds to be studied are administered intravenously at increasing doses: 2, 6.5, 20, 65 and 200 μg/kg. During the first three hours following the injection, the volume of urine excreted is measured. Table VIII gives for compound A the mean relative increase in % of the volume of urine excreted with respect to the group of animals which have not received the compound.

For `Cl.NC(=O)c1cccc(Cc2c[nH]cn2)c1O` [A, 2-hydroxyl-3-[(1H-imidazol-4-yl)methyl]-benzamide hydrochloride], the “concentration necessary to obtain a reduction of 30% in the tachycardia” value ([1]; in the presence of 10^-6 mole/l of α-yohimbine) was “greater than 10^-7 mole/l”, the IC30 ([1]; isolated guinea-pig atria, electrical stimulation, read-out: IC30 (30% reduction in the maximum tachycardia)) was 0.9 nM and the IC50 ([2]; guinea-pig ileum, electrical stimulation, read-out: IC50 (reduces by 50% the intensity of the contraction of the muscle)) was 7 nM. For the same compound, the IC50 ([2]; in the presence of 10^-6 mole/l of α-yohimbine, read-out: concentration required for reducing muscle contraction intensity by 50%) was over 1000 nM, the “Mean relative increase in urine excretion” value (shortened to “Mean relative increase”) ([3]; 2 μg/kg i.v., females, P < 0.05) was 74% and the “Mean relative increase” value ([3]; 2 μg/kg i.v., males) was 25%. The “Mean relative increase” value ([3]; 6.5 μg/kg i.v., females, P < 0.01) was 291%, the “Mean relative increase” value ([3]; 6.5 μg/kg i.v., males, P < 0.05) was 122% and the “Mean relative increase” value ([3]; 20 μg/kg i.v., females, P < 0.01) was 531%. The “Mean relative increase” value ([3]; 20 μg/kg i.v., males, P < 0.01) was 383%, the “Mean relative increase” value ([3]; 65 μg/kg i.v., females, P < 0.01) was 804% and the “Mean relative increase” value ([3]; 65 μg/kg i.v., males, P < 0.01) was 345%. The “Mean relative increase” value ([3]; 200 μg/kg i.v., females, P < 0.01) was 988%, the “Mean relative increase” value ([3]; 200 μg/kg i.v., males, P < 0.01) was 412% and the minimal effective dose ([3]; females) was at most 2 µg/kg. For the same compound, the minimal effective dose ([3]; males) was at most 6.5 µg/kg.
